Reference: patent publication US10913771B2, “Peptide for preventing or treating inflammatory diseases and use thereof” (KINE SCIENCES Co., Ltd., priority 2016, dated 2021)
Values joined by “and” are separate entries in the source; they are usually repeats but may differ in a detail not shown here. Identical values can stand only once. Ends that are not written are not given here.

Experiments:
[1] = tested on: collagen-induced arthritis (CIA) mouse model; assay: Arthritis progression index in collagen-induced arthritis mouse model; type: in vivo, DBA/1J mouse
Description: In Example 2, using a collagen-induced arthritis mouse model in the following document, a therapeutic effect of a PSP dimer or trimer for a representative inflammatory disease, rheumatoid arthritis was confirmed (Nat Protoc. 2007; 2(5):1269-75.).
A collagen-induced arthritis (CIA) mouse model was prepared as follows, as an autoimmune disease-based arthritis model with characteristics similar to human rheumatoid arthritis.
First, a bovine type II collagen (Chondrex Corporation, USA) and a Freund's complete adjuvant (Chondrex Corporation, USA) were mixed at a ratio of 1:1 and emulsified, and then 50 μl of the emulsified collagen solution was injected intradermally into the tail of a 6-week-old DBA/1J mouse to induce primary immunization. At two weeks after the primary immunization, the bovine type II collagen and the Freund's complete adjuvant were mixed at a ratio of 1:1 and emulsified, and then 50 μl of the emulsified collagen solution was injected intradermally into the tail of the mouse again to induce secondary immunization (boosting). After the secondary immunization, the peptide of the present invention (the PSP dimer (1 μmole) or the PSP trimer (1 μmole)) was administered intraperitoneally three times a week from the next day, and as a comparative experimental group, a PSP monomer-treated group and as a control (Vehicle control), a PBS-treated group were used, respectively. The preparation process of the collagen-induced arthritis mouse model and the administration time of the peptide were schematically illustrated in FIG. 1.
In order to investigate the development of arthritis progression according to the peptide treatment of the present invention, the deepening degree of arthritis with time was measured by evaluating an arthritis progression index. Two observers who were unaware of the specific experimental conditions evaluated progression of arthritis three times a week. In this case, the arthritis progression index was evaluated by 0 to 4 scores per leg according to an arthritis progression evaluation standard by Rossoliniec and the like in Table 2 below to be represented by a total of 0 to 16 scores (a sum of four legs), and thereafter, two observers calculated an average value of the evaluated results to digitize the severity of arthritis.
Methotrexate (MTX), one of drugs which are used as arthritis therapeutic agents in a current clinical practice, had excellent anti-inflammatory and arthritis therapeutic effects as an immunodepressant, but may have side effects such as toxicity to normal cells, oral ulcer, alopecia, interstitial pneumonia, bone marrow suppression, and the like. As a result, the methotrexate is known as a drug that needs to pay close attention after medication with sufficient medication counseling. In Example 2, the arthritis therapeutic effect with the peptide of the present invention and methotrexate (1 mg/kg) was evaluated and compared with the arthritic progression index by using the same method as Example 2-2.

[2] = Evaluation of toxicity: mortality and change in body weight after intraperitoneal administration; type: in vivo; conditions: individual mouse
Description: In Example 3, in order to confirm the toxicity of the peptide of the present invention, the PSP dimer or the PSP trimer was intraperitoneally administered to mouse at various concentrations (0.1 μmole, 1 μmole, and 10 μmole), and then the mortality and a change in body weight of each mouse were measured. On the other hand, as a control, a non-administration group (Normal) and a PBS-treated group (PBS) were used.

CN(Cc1cnc2nc(N)nc(N)c2n1)c1ccc(C(=O)N[C@@H](CCC(=O)O)C(=O)O)cc1 [MTX, methotrexate]
arthritis progression index ([1]; Table 6, day 14, comparison of PSP dimer with methotrexate (1 mg/kg), 0 to 16 scores): 0.0
arthritis progression index ([1]; Table 6, day 17, comparison with methotrexate (1 mg/kg)): 0.0
arthritis progression index ([1]; Table 6, day 20, comparison with methotrexate (1 mg/kg)): 0.0
arthritis progression index ([1]; Table 6, day 22, comparison with methotrexate (1 mg/kg)): 0.0
arthritis progression index ([1]; Table 6, day 25, comparison with methotrexate (1 mg/kg)): 0.0
arthritis progression index ([1]; Table 6, day 27, comparison with methotrexate (1 mg/kg)): 1.0
arthritis progression index ([1]; Table 6, day 29, comparison with methotrexate (1 mg/kg)): 0.8
arthritis progression index ([1]; Table 6, day 31, comparison with methotrexate (1 mg/kg)): 2.8
arthritis progression index ([1]; Table 6, day 35, comparison with methotrexate (1 mg/kg)): 3.2
arthritis progression index ([1]; Table 7, day 14, comparison of PSP trimer with methotrexate (1 mg/kg), 0 to 16 scores): 0.0
arthritis progression index ([1]; Table 7, day 17, comparison with methotrexate (1 mg/kg)): 0.0
arthritis progression index ([1]; Table 7, day 20, comparison with methotrexate (1 mg/kg)): 0.0
arthritis progression index ([1]; Table 7, day 22, comparison with methotrexate (1 mg/kg)): 0.0
arthritis progression index ([1]; Table 7, day 25, comparison with methotrexate (1 mg/kg)): 0.0
arthritis progression index ([1]; Table 7, day 27, comparison with methotrexate (1 mg/kg)): 1.0
arthritis progression index ([1]; Table 7, day 29, comparison with methotrexate (1 mg/kg)): 0.8
arthritis progression index ([1]; Table 7, day 31, comparison with methotrexate (1 mg/kg)): 2.8
arthritis progression index ([1]; Table 7, day 35, comparison with methotrexate (1 mg/kg)): 3.2

PSPPSP [PSP dimer, PSPPSP]
Body weight ([2]; PSP dimer 0.1 μmol intraperitoneal, day 15): 20.7 g and 20.2 g and 21.6 g and 21 g and 20.1 g and 20.9 g and 19.9 g
Body weight ([2]; PSP dimer 0.1 μmol intraperitoneal, day 18): 20.7 g and 21.1 g (2×) and 22.7 g and 22.4 g and 21.2 g and 21.8 g
Body weight ([2]; PSP dimer 0.1 μmol intraperitoneal, day 22): 23.3 g and 21.9 g and 23.5 g and 22.9 g and 21.4 g and 23.1 g and 22.3 g
Body weight ([2]; PSP dimer 0.1 μmol intraperitoneal, day 25): 22.7 g and 21.4 g and 22.1 g and 23 g and 21.1 g and 22.5 g and 21.7 g
Body weight ([2]; PSP dimer 0.1 μmol intraperitoneal, day 29): 23.2 g (2×) and 21.7 g (2×) and 22.7 g and 23.3 g and 19.5 g
Body weight ([2]; PSP dimer 0.1 μmol intraperitoneal, day 32): 23.5 g and 22.1 g and 23.3 g and 22.7 g and 19.3 g and 23.9 g and 21 g
Body weight ([2]; PSP dimer 0.1 μmol intraperitoneal, day 36): 23.7 g and 18.6 g (2×) and 22.4 g and 22.3 g and 24.2 g and 20.2 g
Body weight ([2]; PSP dimer 1 μmol intraperitoneal, day 18): 23.3 g and 20 g and 22.5 g and 22.1 g and 20.8 g and 21.8 g and 21.1 g
Body weight ([2]; PSP dimer 1 μmol intraperitoneal, day 22): 24.4 g and 20.7 g and 22.5 g (3×) and 23.2 g and 21.5 g
Body weight ([2]; PSP dimer 1 μmol intraperitoneal, day 25): 23.9 g and 19.6 g and 21.8 g and 22.9 g and 21.6 g and 22.3 g and 22.4 g
Body weight ([2]; PSP dimer 1 μmol intraperitoneal, day 29): 23.9 g and 20.1 g and 21.8 g and 23.4 g and 21.3 g and 22.7 g and 23.1 g
Body weight ([2]; PSP dimer 1 μmol intraperitoneal, day 36): 23 g (2×) and 20.7 g and 23.4 g and 21.4 g and 19.4 g and 24.5 g
Body weight ([2]; PSP dimer 10 μmol intraperitoneal, day 15): 19.5 g
Body weight ([2]; PSP dimer 10 μmol intraperitoneal, day 18): 20.8 g

PSPPSPPSP [PSP trimer, PSPPSPPSP]
Body weight ([2]; PSP trimer 0.1 μmol intraperitoneal, day 15): 20.75 g (2×) and 20.64 g and 21.54 g and 19.43 g and 22.27 g and 21.68 g
Body weight ([2]; PSP trimer 0.1 μmol intraperitoneal, day 17): 21 g and 20.6 g and 21.5 g and 19.1 g and 22.3 g and 21.3 g and 21.7 g
Body weight ([2]; PSP trimer 0.1 μmol intraperitoneal, day 20): 21.2 g and 21.3 g and 20.8 g and 19.6 g and 22.9 g and 21.9 g and 21.7 g
Body weight ([2]; PSP trimer 0.1 μmol intraperitoneal, day 24): 22.2 g and 21.7 g and 22.6 g and 19.9 g and 23.8 g and 22.8 g and 21.9 g
Body weight ([2]; PSP trimer 0.1 μmol intraperitoneal, day 27): 21.3 g and 21.4 g and 22.7 g and 19.5 g and 23.6 g and 22.2 g and 21.8 g
Body weight ([2]; PSP trimer 0.1 μmol intraperitoneal, day 31): 20.3 g and 21.3 g and 21 g (2×) and 18.6 g and 24.3 g and 23.3 g
Body weight ([2]; PSP trimer 0.1 μmol intraperitoneal, day 34): 19.7 g and 20.5 g and 19.8 g and 18.1 g and 24.1 g and 23 g and 21.3 g
Body weight ([2]; PSP trimer 1 μmol intraperitoneal, day 15): 20.76 g and 21.15 g (2×) and 21.62 g and 21.02 g and 20.4 g and 19.02 g
Body weight ([2]; PSP trimer 1 μmol intraperitoneal, day 17): 21.5 g (2×) and 21.1 g and 22.2 g and 21.7 g and 21.3 g and 19.1 g
Body weight ([2]; PSP trimer 1 μmol intraperitoneal, day 20): 22.3 g and 21.6 g and 22.9 g and 22.1 g and 21.8 g and 20.8 g and 19.2 g
Body weight ([2]; PSP trimer 1 μmol intraperitoneal, day 24): 23.2 g and 22.6 g and 23.8 g and 22.7 g (2×) and 21.3 g and 20.2 g
Body weight ([2]; PSP trimer 1 μmol intraperitoneal, day 27): 22.3 g and 22.4 g and 23.8 g and 22.8 g and 22.6 g and 21.5 g and 19.8 g
Body weight ([2]; PSP trimer 1 μmol intraperitoneal, day 31): 21.4 g (2×) and 22.7 g and 22.8 g and 22.5 g and 21.7 g and 19.9 g
Body weight ([2]; PSP trimer 1 μmol intraperitoneal, day 34): 20.1 g and 22.6 g and 21.1 g and 19.9 g and 20.7 g and 22 g and 19.3 g
Body weight ([2]; PSP trimer 10 μmol intraperitoneal, day 15): 21.9 g
Body weight ([2]; PSP trimer 10 μmol intraperitoneal, day 17): 21.2 g
